Values of other authors, collected in patent EP1227797B1, “SOLID DISPERSION PHARMACEUTICAL FORMULATIONS” (ABBOTT LABORATORIES, priority 1999, dated 2001).

Details: PEG solid dispersion formulation

bioavailability: unable to improve the bioavailability
Structure (SMILES): O=C1N(Cc2ccc(CO)cc2)[C@H](Cc2ccccc2)[C@H](O)[C@@H](O)[C@@H](Cc2ccccc2)N1Cc1ccc(CO)cc1 [DMP 323]
